Series [1] has as its system tyrosinase. The series can be described thus: Indirect effect on tyrosinase activity, B16 cells cultured with sample for three days. It counts as cell-based. The conditions noted are these: B16 cells incubated three days with test compound before extraction. As for the experimental part: (§1) The aim was to investigate the impact and mechanisms of action of the test samples on the TYR activity in melanoma cell line B16.
(§2) B16 melanoma cells were washed with phosphate-buffered saline and collected in a centrifuge tube. After centrifugation, WIP-lysis buffer containing phenyl-methylsulfonyl fluoride (PMSF) was added to the cell pellet to lyse the cells and the solution was left to stand on ice for 30 minutes. The solution was subsequently centrifuged for 10 min, at 12000 g, at 4° C., with the supernatant (cell extract) containing the cellular components being retained for assay purposes.

The test system of series [2] is B16 melanoma cells. Briefly: Melanin content in B16 melanoma cells. The format is cell-based. The conditions noted are these: different concentrations. As to the method:
The aim was to investigate the impact of the test samples on melanin content of melanoma cell line B16. […] The method was as set out below: • 1. Harvest the melanoma B16 cells at Log phase and adjust the cell suspension to an appropriate concentration, divide into 24 well plates and allow the cells to adhere to the walls. • 2. […] Add 250 μl WIP lysis buffer and allow to lyse in an ice bath, vortex mixing once every 5 min for 4-5 times. • 4. Centrifuge for 10 min at 12000 rpm at 4° C. Discard the supernatant and dissolve the precipitate with 400 μl 1N NaOH and keep it in a 80° C. water bath for 1 hour. • 5. Use a microplate reader to measure OD value at 405 nm, and calculate the relative content. Results and discussion: The B16 melanoma cells were seeded at a density of 4×10^4 cell per well of 24-well culture plates, incubated at 37° C. under 5% CO2 atmosphere for 24 h. […] The cells were washed with phosphate-buffered saline, collected in centrifuge tube. After centrifugation, cell pellets were disrupted in WIP lysis buffer containing phenylmethylsulfonyl fluoride (PMSF) on ice for 30 min. The solution was centrifuged for 10 min at 12000 g at 4° C., the pellets were dissolved in 1N NaOH by boiling for 1 h at 70° C. The melanin content was assayed at 405 nm in a spectrophotometer.

Series [3] deals with B16 melanoma cells. Briefly: Cell viability, MTT assay. It counts as cell-based. The conditions noted are these: for growth inhibition of B16 melanoma cells (MTT): below the concentration of 200 ppm. As for the experimental part: Cell survival was measured using the MTT assay, which is based on the conversion of 3-(4,5-dimethylthiazol-2-yl)-2,5-diphenyltetrazolium bromide to MTT-formazan crystal by mitochondrial enzyme in viable cells. MTT was freshly prepared at 2 mg/ml in phosphate-buffered saline (PBS). […] Aliquots of 20 μl of MTT stock solution were added to the well at different time points throughout the experiment, and the plate was incubated at 37° C. for 4 h in a humidified 5% CO2 incubator. After 4 h, the formazan crystals of these cells were solubilized in 100 μl DMSO by gentle shaking. After 10 min, the amount of formazan was quantified spectrophotometrically using an ELISA plate reader at 540 nm.

The target in series [4] is T1, tyrosinase (Mus musculus, UniProt P11344).
T1 construct: supernatant (cell extract) containing the cellular components being retained for assay purposes; endogenous in cells; host or cells: B16 melanoma cells
T1 sequence (P11344 19-533): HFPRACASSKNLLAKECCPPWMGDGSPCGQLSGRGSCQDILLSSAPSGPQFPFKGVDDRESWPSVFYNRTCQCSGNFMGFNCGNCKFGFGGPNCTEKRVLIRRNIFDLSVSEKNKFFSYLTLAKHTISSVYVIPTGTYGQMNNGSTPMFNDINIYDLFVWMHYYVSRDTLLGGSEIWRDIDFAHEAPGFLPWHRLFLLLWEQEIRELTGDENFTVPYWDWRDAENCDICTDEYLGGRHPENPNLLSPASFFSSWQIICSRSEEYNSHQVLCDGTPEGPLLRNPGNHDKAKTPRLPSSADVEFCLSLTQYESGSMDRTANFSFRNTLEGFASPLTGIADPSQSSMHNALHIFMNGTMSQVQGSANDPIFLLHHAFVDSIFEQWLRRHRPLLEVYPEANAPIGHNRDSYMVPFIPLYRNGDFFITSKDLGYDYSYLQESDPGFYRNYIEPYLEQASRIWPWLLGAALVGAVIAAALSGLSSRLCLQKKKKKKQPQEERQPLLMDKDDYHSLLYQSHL
Briefly: Direct effect on tyrosinase catalytic activity in B16 cell extract. It counts as biochemical. The conditions noted are these: incubated 1 hour at 37° C., L-dopa. As to the method:
as §1, §2
The plate was incubated at 37° C. for 1 hour, and then 80 μl L-dopa was added to each well. The absorbance (492 nm) of each well was recorded at 5 minute intervals for 30 minutes at 37° C. using a microplate reader.

Another series deals with Wistar rats. Briefly: Blood glucose of Wistar rats after starch meal. The conditions noted are these: positive control 25 mg/kg. It counts as in vivo, Wistar rat. As for the experimental part:
The reagents and apparatus are set out below: • (1) Mulberry leaf extract of Example 1 • (2) Saline • (3) Miglitol standard reference chemical • (4) 64 Wistar rats • (5) Johnson's One Touch Ultra blood glucose meter and Code 9 blood glucose test strips The method used was as set out below:
Animals received Morus extract via intraperitoneal injection (15 mg/kg or 30 mg/kg) or intragastrically (25 mg/kg or 50 mg/kg). Miglitol (Glyset®) (25 mg/kg), an α-glucosidase inhibitor approved for type-2 diabetes was used as a positive control. Fasted blood-sugar levels were recorded as a baseline, and blood sugar levels were measured at time intervals 05.hr, 1 hr and 2 hrs after receiving a starch meal. The animals were dosed with Morus extract prior to receiving the starch meal.

Results on four compounds are retold here after patent US11090349B2, “Plant extract obtained from Morus plant leaves, compositions containing same, method of extraction and uses thereof” (Botanic Century (Beijing) Co. Ltd., priority 2009, dated 2021).

`OCC1NCC(O)C(O)C1O` (stereo not shown) [DNJ, 1-deoxynojirimycin]: in the series with tyrosinase [1], the “indirect effect on tyrosinase activity” value was “dose-dependent decrease in tyrosinase activity”. For the same compound, in the series with B16 melanoma cells [2], the “content of melanin compared to the control” value is recorded as “decreased significantly in a dose-dependent manner”. Moreover, in the series with B16 melanoma cells [3], the “growth inhibition of B16 melanoma cells (MTT)” value is “no growth inhibition”. Further, the “direct effect on tyrosinase activity” value at tyrosinase [4] was “no effect on tyrosinase activity”.
With `OC[C@H]1O[C@@H](Oc2ccc(O)cc2)[C@H](O)[C@@H](O)[C@@H]1O` [arbutin], the “indirect effect on tyrosinase activity” value in the series on tyrosinase [1] is “no effect on tyrosinase activity”. In addition, the “direct effect on tyrosinase activity” value at tyrosinase [4] was “reduced the activity of tyrosinase in a dose-dependent manner”.
On to `O=C1O[C@H]([C@@H](O)CO)C([O-])=C1OP(=O)([O-])[O-].O=C1O[C@H]([C@@H](O)CO)C([O-])=C1OP(=O)([O-])[O-].[Mg+2].[Mg+2].[Mg+2]` [VC-PMG, magnesium L-ascorbyl-2-phosphate], for which the “content of melanin compared to the control” value in the series on B16 melanoma cells [2] is “decreased significantly in a dose-dependent manner”. Moreover, the “concentration above which viability of the cell decreased” value in the series on B16 melanoma cells [3] (B16 melanoma cell) is recorded as “over 200 ppm”. In addition, the “growth inhibition of B16 melanoma cells (MTT)” value in the series on B16 melanoma cells [3] was “no growth inhibition”.
Consider `OCCN1C[C@H](O)[C@@H](O)[C@H](O)[C@H]1CO` [Miglitol], for which, in the series with Wistar rats, the “Blood glucose 0.5 h after giving starch” value was 2.27 ± 0.71 mmol/L, the “Blood glucose 1 h after giving starch” value was found to be 2.98 ± 0.52 mmol/L and the “Blood glucose 2 h after giving starch” value came to 2.69 ± 0.35 mmol/L. Further, the “Fasted Glucose” value in the series with Wistar rats (baseline) amounted to 3.04 ± 0.74 mmol/L.
